Data published in patent publication US7652149B2, “Crystalline pyrazoles” (Pharmacia & Upjohn Company LLC, priority 2004, dated 2010).

Assay: Suspension crystallization: relative thermodynamic stability of Forms I and II, Tt bracketed
Format: physicochemical
Settings: for temperature at which the form is the equilibrium solid phase (thermodynamically more stable): mixture of Forms I and II suspended in toluene, at least three days, PXRD
Excerpt: In this Example, the transition temperature between Forms I and II is described. Form I and Form II are enantiotropic, which means that one polymorph is stable at temperatures below a transition temperature, Tt, but the other polymorph is stable at temperatures above Tt. The two solid phases have equal free energies at the transition temperature. Knowledge of the thermodynamic stability relationship is necessary for the selection of suitable crystallization conditions to produce Form I, and for formulation development and commercial manufacturing. It is important to determine Tt for the preparation and processing of bulk drug.
Materials. The Form I sample used in this study was 100% pure when tested by HPLC. Form II was prepared by heating Form I to 155° C. for 3 days in a dry oven and cooled to room temperature. This Form II sample was free of chemical degradation when tested by HPLC.
Methods. Suspension crystallization. The relative stability relationship between Forms I and II at a specific temperature was bracketed by suspending a mixture of the two polymorphs in toluene in a closed glass vial that was equilibrated at the temperature of interest. Excess solid of one polymorph was first added to saturate toluene in a glass vial at the chosen temperature. The other polymorph was added at least half an hour later. The suspension was stirred continuously for at least three days. A portion of the suspension was withdrawn and immediately filtered. The filtered solid was analyzed using PXRD to identify the equilibrium solid at that temperature. […] By repeating the experiment at different temperatures, the Tt was bracketed.

| temperature at which the form is the equilibrium solid phase (thermodynamically more stable) [°C] | SMILES | relative stability of the crystal form (ambient temperature and pressure) |
| --- | --- | --- |
| ≤ 71.0 | NS(=O)(=O)c1ccc(-n2nc(C(F)(F)F)cc2-c2ccc(F)cc2)cc1 [Form I, 4-[5-(4-fluorophenyl)-3-(trifluoromethyl)-1H-pyrazol-1-yl]-benzenesulfonamide] | – |
| ≥ 71.5 | NS(=O)(=O)c1ccc(-n2nc(C(F)(F)F)cc2-c2ccc(F)cc2)cc1 [Form II, 4-[5-(4-fluorophenyl)-3-(trifluoromethyl)-1H-pyrazol-1-yl]-benzenesulfonamide] | unstable with respect to another form, Form I |
